Laboratory results reported in US11021481B2, “Substituted isoindolin-1-ones and 2,3-dihydro-1h-pyrrolo[3,4-c]pyridin-1-ones as HPK1 antagonists” (Nimbus Saturn, Inc., priority 2019, dated 2021).
Where a name gives a salt, the structure may show the parent alone.

The molecules below were run against HPK1 (Homo sapiens (Human), UniProt Q92918) (assay: HPK1 biochemical enzyme assay (microfluidic mobility shift assay)). Conditions: 1.5 nM HPK1, ATP 1 mM final, 30 min preincubation, 60 min at RT, Caliper EZ Reader; read-out: HPK1 1000UMATP caliper IC50.
Sequence of HPK1 (Q92918 whole entry): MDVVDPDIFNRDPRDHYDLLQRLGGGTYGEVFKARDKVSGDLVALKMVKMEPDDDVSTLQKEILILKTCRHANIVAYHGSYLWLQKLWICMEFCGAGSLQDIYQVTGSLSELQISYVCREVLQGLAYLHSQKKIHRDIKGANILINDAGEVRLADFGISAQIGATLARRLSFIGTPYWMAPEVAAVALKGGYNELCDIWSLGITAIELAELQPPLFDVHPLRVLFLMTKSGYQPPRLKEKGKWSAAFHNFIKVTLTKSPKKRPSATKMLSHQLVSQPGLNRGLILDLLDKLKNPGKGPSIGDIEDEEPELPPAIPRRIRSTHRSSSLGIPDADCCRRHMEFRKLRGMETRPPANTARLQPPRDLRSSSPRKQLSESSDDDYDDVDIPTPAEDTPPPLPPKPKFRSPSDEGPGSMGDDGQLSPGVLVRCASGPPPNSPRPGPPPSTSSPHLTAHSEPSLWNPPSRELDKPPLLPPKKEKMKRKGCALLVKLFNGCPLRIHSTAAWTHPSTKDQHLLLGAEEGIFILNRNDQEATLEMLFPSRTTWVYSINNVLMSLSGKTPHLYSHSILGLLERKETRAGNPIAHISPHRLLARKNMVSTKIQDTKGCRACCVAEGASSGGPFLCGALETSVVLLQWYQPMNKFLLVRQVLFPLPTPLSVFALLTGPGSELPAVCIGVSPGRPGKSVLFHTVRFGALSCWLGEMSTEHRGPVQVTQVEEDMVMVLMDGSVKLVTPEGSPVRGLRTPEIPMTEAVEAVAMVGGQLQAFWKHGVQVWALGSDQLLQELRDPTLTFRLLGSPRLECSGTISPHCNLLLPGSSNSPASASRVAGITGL
Outline: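 Mobility shift readout of HPK1 activity after a 60 min RT reaction with 1 mM ATP, 1 μM substrate and 5 mM MgCl2. Enzyme/substrate mix was first exposed to compounds for 30 min, using ten-point curves topping at 3 μM final.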

| SMILES | IC50 [nM] |
| --- | --- |
| O=C1NCc2c(-c3cnc4cc(F)ccn34)ccc(Nc3ccc(N4CCO[C@H](CN5CC(F)C5)C4)cn3)c21 [I-482, 7-[[5-[(2R)-2-[(3-fluoroazetidin-1-yl)methyl]mor pholin-4-yl]-2-pyridyl]amino] 4-(7-fluoroimidazo [1,2-a]pyridin-3-yl)isoindolin-1-one] | < 100 |
| CN(C)Cc1nc(Nc2ccc(-c3cnc4cc(F)ccn34)c3c2C(=O)NC3)ccc1[C@@]1(O)CCOC1 [I-804, (S)-7-((6-((dimethylamino)-methyl)-5-(3-hydroxytetra-hydrofuran-3-yl)pyridin-2-yl)amino)-4-(7-fluoroimidazo [1,2-a]pyridin-3-yl)isoindolin-1-one] | < 100 |
| CN(Cc1nc(Nc2ccc(-c3cnc4cc(F)ccn34)c3c2C(=O)NC3)ccc1[C@H]1CCOC1)CC(F)F (single isomer, unassigned) [I-748] | < 100 |
| O=C1NCc2c(-c3cnc4cccnn34)ncc(Nc3ccc(N4CCC(O)CC4)cn3)c21 [I-199, 7-[[5-(4-hydroxy-1-piperidyl)-2-pyripyl]amino]-4-imidazo[1,2-b]pyridazin-3-yl-2,3-dihydropyrrolo [3,4-c]pyridin-1-one] | 100 to 1000 |
| Cc1ccn2c(-c3ncc(Nc4ccc(N5CCO[C@H](C(C)(C)O)C5)cn4)c4c3CNC4=O)cnc2c1F [I-473, 4-(8-fluoro-7-methyl-imidazo[1,2-a]pyridin-3-yl)-7-[[5-[(2S)-2-(1-hydroxy-1-methyl-ethyl)morpholin-4-yl]-2-pyridyl]amino]-2,3-dihydropyrrolo [3,4-c]pyridin-1-one] | < 100 |
| Cc1ccn2c(-c3ccc(Nc4ccc(N5CCO[C@@H](C(C)(C)O)C5)cn4)c4c3CNC4=O)cnc2n1 [I-646, (R)-7-((5-(2-(2-hydroxypropan-2-yl)morpholino)pyridin-2-yl)amino)-4-(7-methylimidazo [1,2-a]pyrimidin-3-yl) isoindolin-1-one] | < 100 |
| CN1CCN(c2ccc(Nc3cnc(-c4c[nH]c5ccncc45)c4c3C(=O)NC4)nc2)CC1 [I-13, 7-[[5-(4-methylpiperazin-1-yl)-2-pyridyl]amino]-4-(1H-pyrrolo[3,2-c]pyridin-3-yl)-2,3-dihydropyrrolo [3,4-c]pyridin-1-one] | 100 to 1000 |
| CN(C)Cc1nc(Nc2ccc(-c3cnc4cc(F)ccn34)c3c2C(=O)NC3)ccc1N1CCO[C@H](C(C)(C)O)C1 [I-774, (S)-7-((6-((dimethylamino)-methyl)-5-(2-(2-hydroxypropan-2-yl)morpho-lino)pyridin-2-yl)amino)-4-(7-fluoroimidazo [1,2-a]pyridin-3-yl)isoindolin-1-one] | < 100 |
| COCCNc1ccn2c(-c3ccc(Nc4ccc(N5CCOCC5)cn4)c4c3CNC4=O)cnc2c1 [I-206, 4-[7-(2-methoxyethyl-amino)imidazo [1,2-a]pyridin-3-yl]-7-[(5-morpholino-2-pyridyl)amino] isoindolin-1-one] | 100 to 1000 |
| CN(C)Cc1nc(Nc2ccc(-c3cnc4cc(F)ccn34)c3c2C(=O)NC3)ccc1[C@H]1CCCOC1 [I-550] | < 100 |
| CC(C)(O)[C@@H]1CN(c2ccc(Nc3cnc(-c4cnc5c(C(F)F)cccn45)c4c3C(=O)NC4)nc2)CCO1 [I-475, 4-[8-(difluoromethyl)-imidazo[1,2-a]pyridin-3-yl]-7-[[5-[(2S)-2-(1-hydroxy-1-methyl-ethyl)morpholin-4-yl]-2-pyridyl]amino]-2,3-dihydropyrrolo [3,4-c]pyridin-1-one] | < 100 |
| CN(C)Cc1nc(Nc2ccc(-c3cnc4cc(F)ccn34)c3c2C(=O)NC3)ccc1N1CC[C@H](O)C1 [I-555] | < 100 |
| CN(C)Cc1nc(Nc2ccc(-c3cnc4cc(F)ccn34)c3c2C(=O)NC3)ccc1[C@H]1CCN(C)C(=O)C1 [I-556, (S)-7-((6-((dimethylamino)-methyl)-5-(1-methyl-2-oxopiperidin-4-yl)pyridin-2-yl)amino)-4-(7-fluoroimidazo [1,2-a]pyridin-3-yl)isoindolin-1-one] | < 100 |
| Cc1ccc2c(-c3ccc(Nc4ccc(C5CCOC5)c(CN(C)C)n4)c4c3CNC4=O)cnn2c1 (stereo in doubt) [I-732, (R)-7-((6-((dimethylamino)-methyl)-5-(tetrahydrofuran-3-yl)pyridin-2-yl)amino)-4-(6-methylpyra-zolo[1,5-a]pyridin-3-yl)isoindolin-1-one] | < 100 |
| C[C@@H]1COCCN1c1ccc(Nc2ccc(-c3cnc4cc(F)ccn34)c3c2C(=O)NC3)nc1CN(C)C [I-528, 7-[[6-[(dimethylamino)-methyl]-5-[(3R)-3-methylmorpho-lin-4-yl J-2-pyridyl]amino]-4-(7-fluoroimidazo [1,2-a]pyridin-3-yl)isoindolin-1-one Formic acid salt] | < 100 |
| CN(C)C(C)(C)C1CN(c2ccc(Nc3ccc(-c4cnc5cc(F)ccn45)c4c3C(=O)NC4)nc2)CCO1 (stereo in doubt) [I-590, (R)-7-((5-(2-(2-(dimethylami-no)propan-2-yl)morpho-lino)pyridin-2-yl)amino)-4-(7-fluoroimidazo [1,2-a]pyridin-3-yl)isoindolin-1-one] | < 100 |
| CN(C)Cc1nc(Nc2ccc(-c3cnc4cc(F)ccn34)c3c2C(=O)NC3)ccc1N1CCOCC1 [I-693, 7-((6-((dimethylamino)-methyl)-5-morpholino-pyridin-2-yl)amino)-4-(7-fluoroimidazo [1,2-a]pyridin-3-yl)isoindolin-1-one] | < 100 |
| CN1CC(Oc2nc(Nc3ccc(-c4cnc5cc(F)ccn45)c4c3C(=O)NC4)ccc2[C@H]2CCOC2)C1 [I-815] | < 100 |

Other lines, results leading:

| IC50 [nM] | SMILES |
| --- | --- |
| < 100 | CN1CCN(c2ccc(Nc3ccc(-c4cnc5n4CCNC5)c4c3C(=O)NC4)nc2)CC1 [I-92] |
| < 100 | CN1CCN(CC2(O)CCN(c3ccc(Nc4cnc(-c5ccnc6c5ccn6C)c5c4C(=O)NC5)nc3)CC2)CC1 [I-401, 7-((5-(4-hydroxy-4-((4-methylpiperazin-1-yl)methyl)piper-idin-1-yl)pyridin-2-yl)amino)-4-(1-methyl-1H-pyrrolo[2,3-b]pyridin-4-yl)-2,3-dihydro-1H-pyrrolo[3,4-c]pyridin-1-one] |
| < 100 | Cn1ccc2c(-c3ccc(Nc4ccc(N5CCC(O)(CN6CCOCC6)CC5)cn4)c4c3CNC4=O)ccnc21 [I-291, 7-((5-(4-hydroxy-4-(morpholino-methyl)piperi-din-1-yl)pyridin-2-yl)amino)-4-(1-methyl-1H-pyrrolo[2,3-b]pyridin-4-yl)isoindolin-1-one] |
| < 100 | C[C@H]1CCn2c(-c3ccc(Nc4ccc(N5CCC(O)CC5)cn4)c4c3CNC4=O)cnc2C1 [I-303, (S)-7-((5-(4-hydroxy-piperidin-1-yl)pyridin-2-yl)amino)-4-(7-methyl-5,6,7.8-tetrahydroimi-dazo[1,2-a]pyridin-3-yl)isoindolin-1-one] |
| < 100 | Cn1ccc2c(-c3ccc(Nc4ccc(C5CCNCC5)cn4)c4c3CNC4=O)ccnc21 [I-96, 4-(1-methylpyrrolo [2,3-b]pyridin-4-yl)-7-[[5-(4-piperidyl)-2-pyridyl]amino] isoindolin-1-one] |
| < 100 | CNC1CN(c2cccc(Nc3cnc(-c4ccnc5c4ccn5C)c4c3C(=O)NC4)n2)C1 [I-449, 7-[[6-[3-(methylamino)azetidin-1-yl]-2-pyridyl]amino]-4-(1-methylpyrrolo [2,3-b]pyridin-4-yl)-2,3-dihydropyrrolo [3,4-c]pyridin-1-one Formic acid salt] |
| < 100 | Cn1ccc2c(-c3ncc(Nc4ccc([C@@H]5CCOC5)c(CN5CC[C@H](O)C5)n4)c4c3CNC4=O)ccnc21 [I-811, 7-((6-(((S)-3-hydroxypyrroli-din-1-yl)methyl)-5-((S)-THF-3-yl)pyridin-2-yl)amino)-4-(1-methyl-1H-pyrrolo[2,3-b]pyridin-4-yl)-2,3-dihydro-1H-pyrrolo[3,4-c]pyridin-1-one] |
| < 100 | C[C@@H]1C[C@@H](O)CCN1c1ccc(Nc2ccc(-c3cnc4cnccn34)c3c2C(=O)NC3)nc1 [I-351, 7-((5-((2R,4S)-4-hydroxy-2-methylpiperidin-1-yl)pyridin-2-yl)amino)-4-(imidazo[1,2-a]pyrazin-3-yl)isoindolin-1-one] |
| < 100 | N#Cc1ccn2c(-c3ccc(Nc4ccc(N5CCC(O)CC5)cn4)c4c3CNC4=O)cnc2c1F [I-188, 8-fluoro-3-[7-[[5-(4-hydroxy-1-piperidyl)-2-pyridyl]amino]-1-oxo-isoindolin-4-yl]imidazo[1,2-a]pyridine-7-carbonitrile] |
| 100 to 1000 | CN1CCN(c2ccc(Nc3ccc(-c4ccn5ccnc5c4)c4c3C(=O)NC4)nc2)CC1 [I-35, 4-imidazol[1,2-a]pyridin-7-yl-7-[[5-(4-methylpiperazin-1-yl)-2-pyridyl]amino] isoindolin-1-one] |
| < 100 | CN1CCN(c2ccc(Nc3ccc(-c4c[nH]c5ccncc45)c4c3C(=O)NC4)nc2)CC1 [I-24, 7-((5-(4-methylpiperazin-1-yl)pyridin-2-yl)amino)-4-(1H-pyrrolo[3,2-c]pyridin-3-yl)isoindolin-1-one] |
| < 100 | O=C1NCc2c(-c3cnn4ccccc34)ccc(Nc3ccc(N4CCNCC4)cn3)c21 [I-90, 7-[(5-piperazin-1-yl-2-pyridyl)amino]-4-pyrazolo[1,5-a]pyridin-3-yl-isoindolin-1-one] |
| < 100 | Cn1ccc2c(-c3ncc(Nc4cccc(N5CCC6CNCC65)n4)c4c3CNC4=O)ccnc21 (stereo not drawn) [I-472, 7-[[6-(3,3a,4,5,6,6a-hexahydro-2H-pyrrolo[2,3-c]pyrrol-1-yl)-2-pyridyl]amino]-4-(1-methylpyrrolo [2,3-b]pyridin-4-yl)-2,3-dihydropyrrolo [3,4-c]pyridin-l-one] |
| < 100 | C[C@@H](c1ccc(Nc2ccc(-c3cnc4cc(F)ccn34)c3c2C(=O)NC3)nc1)N1CCC(O)CC1 [I-526, (S)-4-(7-fluoroimidazo [1,2-a]pyridin-3-yl)-7-((5-(l-(4-hydroxypiperidin-1-yl)ethyl)pyridin-2-yl)amino)isoin-dolin-1-one] |
